The values below come from paper PMC8528301 (PLoS ONE, 2021).

Where two headings read alike, the source gives them in different places.

For series [1] the following is noted: no reference given, cited from earlier work.
For series [2] the following is noted: serum. The text has this:
(§1) To generate VD3 deficient and sufficient mice, day 4–5 estrus (E5-E6) pregnant C57BL/6J female mice from Jackson Laboratories (Bar Harbor, ME) were kept on the VD3 deficient (Harlan catalog no. 5A69, 0 IU of vitamin D) and VD3 sufficient diets, (catalog. No. 5BV8, 3.3 IU of vitamin D) to develop vitamin D deficient and vitamin D sufficient mice, respectively. Pregnant dams were maintained on these diets throughout pregnancy, and after parturition, and pups were maintained on the corresponding diets after weaning as described in [16]. The pups were age matched and both male and female, VD3 deficient and VD3 sufficient mice were used for Cyp3a expression, pharmacokinetic and efficacy studies.
To observe the effect of vitamin D status on hCYP3A4 expression, cryopreserved hCYP3A4 transgenic (tg) mouse sperm was used to re-derive the humanized CYP3A4 transgenic mouse model. Human CYP3A4 transgenic mice were obtained from the laboratory of Dr. Frank Gonzalez (Laboratory of Metabolism, Center for Cancer Research, National Cancer Institute, National Institutes of Health, Bethesda). To generate hCYP3A4-Tg VD3 deficient and sufficient mice, E5-E6 hCYP3A4-Tg pregnant female mice were kept on VD3 deficient and VD3 sufficient diets throughout pregnancy and after parturition as described for C57BL/6J mice above. Pups were maintained on the corresponding diets after weaning and were euthanized at 12 weeks of age for tissue collection, blood was collected by cardiac puncture and serum was isolated and stored at -80°C. Tissues such as intestine (duodenum), liver and kidney were harvested and stored in RNA later at -20°C.
Serum samples from all animals in this manuscript were collected but only a few samples were randomly selected across studies and sent to the Veterinary Diagnostic Laboratory at Michigan State University (Lansing, MI) for serum 25-(OH) VD3 analysis.

Series [3] has as its system duodenal mCyp3a and drug efflux transporter mRNA expression. The series can be described thus: qPCR of Cyp3a and efflux transporter mRNA in duodenum of VD3 sufficient vs deficient C57BL/6 mice. The format is in vivo, mouse. Particulars: n=3.
Source text: as §1
Mouse intestine (duodenum), liver and kidney tissues stored in RNA later at -20°C were used for RNA isolation. Trizol (Ambion Life technologies, CA, USA or Thermo Fisher scientific, CA, USA) was used to extract RNA according to the manufacturers protocol. Sterile Omni tips (OMNI International, GA, USA) were used to homogenize the tissue using Omni tissue homogenizer. 500 ng of RNA was used to generate cDNA using the Thermoscript™ RT-PCR system (Invitrogen ThermoFisher, CA, USA). The cDNA was diluted to a total volume of 70 μL. Primers used for the amplification: […]
Real-time PCR quantification was performed using SYBR GreenER™ qPCR supermix for ABI PRISM Instrument (Life Technologies, Grand Island, NY) according to manufacturer’s instructions. Samples were run at the following conditions: 95°C for 15 min, 40 cycles of 92°C for 30 sec, 60°C for 30 sec, 68°C for 1 min followed by a dissociation step. The relative amounts of mRNAs in each sample were normalized to Villin or Gapdh for intestine samples or Gapdh values for liver and kidney samples to control for quality of the mRNA. Comparative CT (ΔΔCt) method was used to determine quantitative PCR values.
Fig 1 Cyp and transporter gene expression in duodenum of VD3 sufficient and deficient mice. Influence of VD3 deficiency on duodenal mCyp3a11, mCyp3a13, mCyp3a44 (A,B) and drug efflux transporter mRNA expression (C,D) in 12 wk old C57BL/6 mice (A, C)) and hCYP3A4-tg mice (B,D) (male, n = 3 and female, n = 3/strain). Data are expressed as mean (bars) + SD (error bars) fold change in mRNA expression in deficient mice relative to each mRNAs expression in sufficient mice set as one. Villin was used as an internal control to normalize the target gene expression data. Mann-Whitney nonparametric test on GraphPad was used to determine significance between the groups (**p<0.01, *p<0.05).
Background: Quantitative PCR measures a nucleic acid by following its amplification.

Where [4] appears, read: female C57BL/6, VD3 deficient vs sufficient = 1, Villin.
Setting [5] is: male C57BL/6, VD3 deficient vs sufficient = 1, Villin.

Usually half-life stands for the time in which the quantity being followed falls by half. Consider `C=C1/C(=C\C=C2/CCC[C@]3(C)[C@@H]([C@H](C)CCCC(C)(C)O)CC[C@@H]23)C[C@@H](O)C[C@@H]1O` [1,25 (OH)2 VD3], for which, in series [1] (serum 1,25 (OH)2 VD3, biologically short lived), the half-life is reported as ~ 15 hours.
Regarding `C=C1CC[C@H](O)C/C1=C/C=C1\CCC[C@]2(C)[C@@H]([C@H](C)CCCC(C)(C)O)CC[C@@H]12` [25-(OH) VD3], the “Mean (25-(OH) VD3” value is recorded as 12 nmol/L in series [2] (C57BL/6, VD3 Deficient, n=6); 324.50 nmol/L in series [2] (C57BL/6, VD3 Sufficient, n=2); 14.75 nmol/L in series [2] (hCYP3A4-tg, VD3 Deficient, n=4); 219 nmol/L in series [2] (hCYP3A4-tg, VD3 Sufficient, n=4). Further, the half-life in series [1] (serum 25(OH)VD3) was 15 days.
Turning to `C=C1CC[C@H](O)C/C1=C/C=C1\CCC[C@]2(C)[C@@H]([C@H](C)CCCC(C)C)CC[C@@H]12` [VD3, Vitamin D3], in series [3] (setting [4]), the “avg fold chnge Cyp3a11 mRNA” value came out at 0.2614 fold, the “avg fold chnge cyp3a13 mRNA” value came out at 0.2206 fold, the “avg fold chnge cyp3a25 mRNA” value is reported as 1.068 fold and the “avg fold chnge cyp3a44 mRNA” value is on record as 0.139 fold. The “avg fold change Cyp3a11 mRNA” value in series [3] (male C57BL/6, VD3 deficient (GCD) vs VD3 sufficient = 1, normalised to Villin) stood at 0.299 fold. In series [3] (setting [5]), the “avg fold change Cyp3a13 mRNA” value is 0.1229 fold, the “avg fold change Cyp3a25 mRNA” value is on record as 0.2366 fold, the “avg fold change Cyp3a41 mRNA” value was 0.2185 fold and the “avg fold change Cyp3a44 mRNA” value is given as 0.1467 fold. For the same compound, in series [3] (setting [5]), the “avg fold change bcrp mRNA” value stood at 0.5071 fold, the “avg fold change mPXR mRNA” value is 0.5697 fold, the “avg fold change mVDR mRNA” value stood at 0.3209 fold and the “avg fold change mdr1a mRNA” value is recorded as 0.5457 fold.
